One compound from patent US20230028880A1, “CD38-BINDING AGENTS AND USES THEREOF” (Biohaven Therapeutics Ltd., priority 2019, published 2023) can be followed below.

Series [1] concerns multiple myeloma patient bone marrow plasma cells (CD38+ CD138+). The experiment in a line: Patient bone marrow with autologous CIML NK cells: reduction of plasma cells. It counts as cell-based, human. The following applies: 4 hr, IVIG 10 ug/ml (FIG. 7). Here is the method:
(§1) Patient bone marrow (3 ml) and blood (20 ml) were shipped at ambient temperature from Discovery Biosciences. Bone marrow was diluted 1:1 with PBS, and […] of bone marrow-PBS mixture was aliquoted into 96 deep well plates. Bone marrow cells were incubated overnight until CIML cells were added next day.
(§2) PBMC were isolated from blood by Ficoll density gradient centrifugation. PBMC were centrifuged at 400 g for 10 min and re-suspended in EasySep buffer. NK cells were isolated using NK cell isolation kits from […] Technologies according to kit's manufacturers' instructions.
(§3) NK cells were re-suspended at 1×10^6 cells/ml in XVIVO15, 10% Human Serum, IL-15 (50 ng/ml), IL-12 (10 ng/ml), IL-18 (50 ng/ml), and incubated for 18 hrs. Following overnight incubation with cytokines, NK cells were washed twice with PBS 5% Human Serum Albumin, counted and re-suspended at a cell density of 2×10^5 cells/ml of XVIVO15 media. Twenty microliters (4000 cells) were added per each well containing 50 µl of bone marrow: PBS mixture. […] Control wells received XVIVO15 media. Well contents were mixed by pipetting up and down and plates were centrifuged at 400 g for 1 min.
(§4) The assay was then incubated for 4 hrs at 37° C. 5% CO2. […] Finally, cells were re-suspended in 200 µl of FACS Buffer and analyzed using Attune Flow Cytometer. Data were analyzed using FlowJo software and graphed using GraphPad Prism.

In series [2] the test system is CD56+CD138- CIML NK cells. Briefly: Patient bone marrow with CIML NK cells: NK cell fratricide. It counts as cell-based, human. Conditions: CIML NK cells co-incubated with patient bone marrow for 4 hrs (FIG. 8). Here is the method: as §1, §2, §3, §4
For series [3], the system named is Daudi cells. The experiment in a line: Intraperitoneal lavage model: CFSE-labelled Daudi cells in SCID mice. In kind it is in vivo. Conditions: I-17 1, 10, 30 mg/kg + IVIG 10 mg/mouse sub-Q, 16-18 hours (FIG. 9). As for the experimental part:
On day 0 animals were weighed and randomized. Mice were assigned to different groups and treated as described below. CFSE labelled Daudi cells were prepared as follows:
• Reagents used: PBS (Sterile) • Quenching Buffer PBS+10% FBS • RPMI (no additives) no P/S; no FBS • Invitrogen—CellTrace CFSE Cell Proliferation Kit, for Flow Cytometry (Cat#C34570) • Warm the sterile PBS and all other media to 37 degree Celsius before use for all of the following procedures listed below. […]
After 16-18 hours the mice were sacrificed via CO2 asphyxiation and had their peritoneal cavity flushed with 5 mls of PBS with 1% BSA. Samples were processed and analyzed using IP Lavage Processing is described in 00765. Samples were evaluated for tumor cell counts. […]

Molecules are shown by their SMILES. Entries after “also recorded” stand apart in the source; their conditions may differ.

Take `CCCCC[C@@H]1NC(=O)[C@H](CCCNC(=N)N)NC(=O)[C@H](C)NC(=O)CSC[C@@H](C(=O)NCCOCCOCCOCCOCCOCCOCCn2nnc3c2CCC2C(CC3)C2COC(=O)N2CCC(C(=O)NCC(=O)N[C@H](CCC(=O)N[C@H](CCC(=O)N[C@H](CCC(=O)O)C(=O)N[C@H](CCC(=O)N[C@H](CCC(=O)NCC(=O)NCC(=O)N[C@@H](CC(=O)O)C(=O)N[C@H]3CSSC[C@@H](C(=O)N[C@H](C(=O)O)[C@@H](C)O)NC(=O)[C@H](Cc4c[nH]c5ccccc45)NC(=O)[C@H](C(C)C)NC(=O)[C@H](CC(C)C)NC(=O)[C@H](CCC(=O)O)NC(=O)CNC(=O)[C@H](CC(C)C)NC(=O)[C@H](Cc4c[nH]cn4)NC(=O)[C@H](Cc4c[nH]c5ccccc45)NC(=O)[C@H](C)NC3=O)C(=O)O)C(=O)O)C(=O)O)C(=O)O)CC2)NC(=O)[C@H](CC(=O)O)NC(=O)[C@H](CCCCC)NC(=O)[C@H](Cc2ccc(-c3ccccc3)cc2)NC(=O)[C@H](CC(C)C)NC(=O)[C@H](C(C)C)NC(=O)CNC(=O)[C@H](CC(=O)O)NC(=O)[C@H](Cc2c[nH]cn2)NC(=O)[C@H](Cc2ccc(O)cc2)NC1=O` (stereo partly drawn) [I-17]: the “reduction in the frequencies of CD38+ CD138+ cells in patient bone marrow” value in series [1] is reported as “effectively reduced frequency of plasma cells; also recorded: can reduce the number of plasma cells”. Besides, the “NK cell numbers / NK cell fratricide” value in series [2] was “NK cell numbers did not change; also recorded: No or low level of undesired NK cell fratricide”. For the same compound, the “number of CD38 expressing Daudi cells in intraperitoneal cavity” value in series [3] is recorded as “can effectively reduce the number of target cells”.
